Results reported in PubChem BioAssay (NCI).
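1) Cells in 96-well plates. 2) Compound, 48 h, 5 concentrations. 3) Linear interpolation between surrounding doses. 4) Unreached endpoint = highest concentration. GI50 is the concentration that inhibits growth by half. TGI: total growth inhibition.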

Columns and labels:
Test in all cases: NCI-60 cell line screen, 48 h
NCI/ADR-RES ovarian = tested on: NCI/ADR-RES ovarian
A498 renal = tested on: A498 renal
HS 578T breast = tested on: HS 578T breast
SF-539 CNS = tested on: SF-539 CNS
HOP-92 NSCLC = tested on: HOP-92 NSCLC
HT29 colon = tested on: HT29 colon
SK-MEL-28 melanoma = tested on: SK-MEL-28 melanoma
DU-145 prostate = tested on: DU-145 prostate
OVCAR-3 ovarian = tested on: OVCAR-3 ovarian
SF-295 CNS = tested on: SF-295 CNS
HOP-62 NSCLC = tested on: HOP-62 NSCLC
K-562 leukemia = tested on: K-562 leukemia
SNB-75 CNS = tested on: SNB-75 CNS
MDA-MB-435 = tested on: MDA-MB-435
SK-MEL-5 melanoma = tested on: SK-MEL-5 melanoma
HCT-15 colon = tested on: HCT-15 colon
A549 NSCLC = tested on: A549 NSCLC
NCI-H522 lung = tested on: NCI-H522 lung
LOX IMVI melanoma = tested on: LOX IMVI melanoma
KM12 colon = tested on: KM12 colon
BT-549 breast = tested on: BT-549 breast
MOLT-4 leukemia = tested on: MOLT-4 leukemia
786-0 renal = tested on: 786-0 renal
SF-268 CNS = tested on: SF-268 CNS
HCC-2998 colon = tested on: HCC-2998 colon
TK-10 renal = tested on: TK-10 renal
RXF 393 renal = tested on: RXF 393 renal
HCT-116 colon = tested on: HCT-116 colon
NCI-H23 lung = tested on: NCI-H23 lung
MALME-3M melanoma = tested on: MALME-3M melanoma
SK-OV-3 ovarian = tested on: SK-OV-3 ovarian
MDA-MB-231 breast = tested on: MDA-MB-231 breast
M14 melanoma = tested on: M14 melanoma
CAKI-1 renal = tested on: CAKI-1 renal
NCI-H226 lung = tested on: NCI-H226 lung
OVCAR-8 ovarian = tested on: OVCAR-8 ovarian
NCI-H460 lung = tested on: NCI-H460 lung
IGROV1 ovarian = tested on: IGROV1 ovarian
OVCAR-4 ovarian = tested on: OVCAR-4 ovarian
CCRF-CEM leukemia = tested on: CCRF-CEM leukemia
MCF7 breast = tested on: MCF7 breast
U251 CNS = tested on: U251 CNS
PC-3 prostate = tested on: PC-3 prostate
SW-620 colon = tested on: SW-620 colon
UO-31 renal = tested on: UO-31 renal
UACC-62 melanoma = tested on: UACC-62 melanoma
OVCAR-5 ovarian = tested on: OVCAR-5 ovarian
SNB-19 CNS = tested on: SNB-19 CNS
RPMI-8226 leukemia = tested on: RPMI-8226 leukemia
EKVX NSCLC = tested on: EKVX NSCLC
UACC-257 melanoma = tested on: UACC-257 melanoma
SK-MEL-2 melanoma = tested on: SK-MEL-2 melanoma
SN12C renal = tested on: SN12C renal
COLO 205 colon = tested on: COLO 205 colon
T-47D breast = tested on: T-47D breast
ACHN renal = tested on: ACHN renal

SMILES: COc1cc(/C=C2\CC3C4CCC5=CC(=O)CC[C@]5(C)C4CC[C@]3(C)C2=O)ccc1OCCN1CCCC1 (some centres not stated)
- GI50 (NCI/ADR-RES ovarian): 2450 nM
- TGI (NCI/ADR-RES ovarian): 6.51 µM
- GI50 (A498 renal): 5.05 µM
- TGI (A498 renal): 10.6 µM
- GI50 (HS 578T breast): 3.22 µM
- TGI (HS 578T breast): 8.87 µM
- GI50 (SF-539 CNS): 1780 nM
- TGI (SF-539 CNS): 3.67 µM
- GI50 (HOP-92 NSCLC): 1410 nM
- TGI (HOP-92 NSCLC): 3.87 µM
- GI50 (HT29 colon): 2500 nM
- TGI (HT29 colon): > 28.5 µM
- GI50 (SK-MEL-28 melanoma): 2700 nM
- TGI (SK-MEL-28 melanoma): 8.11 µM
- GI50 (DU-145 prostate): 3.76 µM
- TGI (DU-145 prostate): 16.8 µM
- GI50 (OVCAR-3 ovarian): 2370 nM
- TGI (OVCAR-3 ovarian): 6.01 µM
- GI50 (SF-295 CNS): 2620 nM
- TGI (SF-295 CNS): 7.58 µM
- GI50 (HOP-62 NSCLC): 2330 nM
- TGI (HOP-62 NSCLC): 6.11 µM
- GI50 (K-562 leukemia): 489 nM
- TGI (K-562 leukemia): 1530 nM
- GI50 (SNB-75 CNS): 3.47 µM
- TGI (SNB-75 CNS): 11.1 µM
- GI50 (MDA-MB-435): 2150 nM
- TGI (MDA-MB-435): 4.86 µM
- GI50 (SK-MEL-5 melanoma): 1800 nM
- TGI (SK-MEL-5 melanoma): 3.5 µM
- GI50 (HCT-15 colon): 2760 nM
- TGI (HCT-15 colon): 10.7 µM
- GI50 (A549 NSCLC): 4.45 µM
- TGI (A549 NSCLC): > 100 µM
- GI50 (NCI-H522 lung): 2330 nM
- TGI (NCI-H522 lung): 5.45 µM
- GI50 (LOX IMVI melanoma): 2010 nM
- TGI (LOX IMVI melanoma): 3.97 µM
- GI50 (KM12 colon): 1920 nM
- TGI (KM12 colon): 4.77 µM
- GI50 (BT-549 breast): 8.44 µM
- TGI (BT-549 breast): 23.3 µM
- GI50 (MOLT-4 leukemia): 689 nM
- TGI (MOLT-4 leukemia): 1840 nM
- GI50 (786-0 renal): 1220 nM
- TGI (786-0 renal): 2910 nM
- GI50 (SF-268 CNS): 3.41 µM
- TGI (SF-268 CNS): 19.4 µM
- GI50 (HCC-2998 colon): 1850 nM
- TGI (HCC-2998 colon): 3.89 µM
- GI50 (TK-10 renal): 1510 nM
- TGI (TK-10 renal): 3.92 µM
- GI50 (RXF 393 renal): 2240 nM
- TGI (RXF 393 renal): 5.41 µM
- GI50 (HCT-116 colon): 1410 nM
- TGI (HCT-116 colon): 3.79 µM
- GI50 (NCI-H23 lung): 3.31 µM
- TGI (NCI-H23 lung): 13.4 µM
- GI50 (MALME-3M melanoma): 645 nM
- TGI (MALME-3M melanoma): 1930 nM
- GI50 (SK-OV-3 ovarian): 4.56 µM
- TGI (SK-OV-3 ovarian): 16.8 µM
- GI50 (MDA-MB-231 breast): 2010 nM
- TGI (MDA-MB-231 breast): 5.1 µM
- GI50 (M14 melanoma): 1670 nM
- TGI (M14 melanoma): 3.39 µM
- GI50 (CAKI-1 renal): 2890 nM
- TGI (CAKI-1 renal): 10.5 µM
- GI50 (NCI-H226 lung): 1810 nM
- TGI (NCI-H226 lung): 7.08 µM
- GI50 (OVCAR-8 ovarian): 3.4 µM
- TGI (OVCAR-8 ovarian): 13.5 µM
- GI50 (NCI-H460 lung): 3.57 µM
- TGI (NCI-H460 lung): > 37.5 µM
- GI50 (IGROV1 ovarian): 2330 nM
- TGI (IGROV1 ovarian): 5.73 µM
- GI50 (OVCAR-4 ovarian): 3.94 µM
- TGI (OVCAR-4 ovarian): 15.1 µM
- GI50 (CCRF-CEM leukemia): 1120 nM
- TGI (CCRF-CEM leukemia): 4.35 µM
- GI50 (MCF7 breast): 4.07 µM
- TGI (MCF7 breast): > 45.3 µM
- GI50 (U251 CNS): 2860 nM
- TGI (U251 CNS): 10.1 µM
- GI50 (PC-3 prostate): 2350 nM
- TGI (PC-3 prostate): 8.31 µM
- GI50 (SW-620 colon): 3.09 µM
- TGI (SW-620 colon): 11.5 µM
- GI50 (UO-31 renal): 1680 nM
- TGI (UO-31 renal): 3.38 µM
- GI50 (UACC-62 melanoma): 2060 nM
- TGI (UACC-62 melanoma): 5.02 µM
- GI50 (OVCAR-5 ovarian): 2640 nM
- TGI (OVCAR-5 ovarian): 8.26 µM
- GI50 (SNB-19 CNS): 4.16 µM
- TGI (SNB-19 CNS): 18.8 µM
- GI50 (RPMI-8226 leukemia): 202 nM
- TGI (RPMI-8226 leukemia): 889 nM
- GI50 (EKVX NSCLC): 3.98 µM
- TGI (EKVX NSCLC): 17.3 µM
- GI50 (UACC-257 melanoma): 2500 nM
- TGI (UACC-257 melanoma): 6.15 µM
- GI50 (SK-MEL-2 melanoma): 4.21 µM
- TGI (SK-MEL-2 melanoma): 14.8 µM
- GI50 (SN12C renal): 3.28 µM
- TGI (SN12C renal): 9.18 µM
- GI50 (COLO 205 colon): 2040 nM
- TGI (COLO 205 colon): 4.91 µM
- GI50 (T-47D breast): 3.29 µM
- TGI (T-47D breast): 9.21 µM
- GI50 (ACHN renal): 2940 nM
- TGI (ACHN renal): 9.16 µM
